Laboratory results as given in patent US11400063B2, “Early administration of low-dose colchicine after myocardial infarction” (INSTITUT DE CARDIOLOGIE DE MONTREAL, priority 2019, dated 2022).

Test system: patients recruited within 30 days after a myocardial infarction
Assay: COLCOT time-to-treatment initiation (TTI) analysis
Type: in vivo, human
Conditions: for All Coronary Revascularizations, HR (95% CI) / All-cause death, HR (95% CI) / MI, HR (95% CI) / Primary composite endpoint, HR (95% CI) / Resuscitated cardiac arrest, HR (95% CI) / Secondary Composite Endpoint, HR (95% CI) / Stroke, HR (95% CI) / Urgent hospitalization for angina requiring coronary revascularization, HR (95% CI): colchicine vs. placebo
Protocol: The results of the COLCOT trial have been further analyzed to determine if time to treatment initiation (TTI) had any effect on the outcome of the treatment. Three different cutoffs for TTI were used in order to determine the association between early initiation of therapy and clinical outcomes. These cutoffs were determined based on the usual journey of patients with MI. The first 30-day post-MI timeline was divided into three independent periods of time, and analyzed as such: from day 0 to 3, referring to in-hospital management; from day 4 to 7, referring to early post-discharge period and from day 8 to 30, referring to late post-discharge period.
COLCOT was an international multicenter, randomized, double-blinded trial that randomly assigned patients to receive either low-dose colchicine (0.5 mg once daily) or placebo. The study protocol and main results have been published (see, Tardif et al., N Engl J Med 2019). […] Main exclusion criteria were severe heart failure, reduced left ventricular ejection fraction (<35%), recent stroke (<3 months), type 2 MI, recent (<3 years) or planned coronary artery bypass graft (CABG), history of cancer (<3 years), and inflammatory bowel disease or chronic diarrhea. All patients enrolled in the trial benefited from percutaneous coronary intervention whenever indicated and guidelines-directed management of CV disease prior to randomization (see. Tardif et al., N Engl J Med 2019).
The primary efficacy endpoint was a composite of CV death, resuscitated cardiac arrest, MI, stroke, or urgent hospitalization for angina requiring coronary revascularization. The secondary endpoints consisted of the components of the primary efficacy endpoint, all-cause death, and a composite of CV death, resuscitated cardiac arrest, MI, or stroke. Exploratory endpoints included all coronary revascularizations, including both elective and urgent coronary revascularizations.
Three different cutoffs for TTI were used in order to determine the association between early initiation of therapy and clinical outcomes. These cutoffs were determined based on the usual journey of patients with MI. The first 30-day post-MI timeline was divided into three independent periods of time, and analyzed as such: from day 0 to 3, referring to in-hospital management; from day 4 to 7, referring to early post-discharge period and from day 8 to 30, referring to late post-discharge period.
Both the TTI of less than 4 days and the TTI of less than 5 days was were calculated using a basic model (Table 4 and Table 6) as well as an adjusted model (Table 5 and Table 7) which is described below in the statistical analysis section. In all cases, the interaction p-value was not significant (p>0.05), meaning that the conclusion over Placebo vs. Colchicine group can be obtained directly from the respective p-values for HR. In other words, relationships within the placebo and colchicine groups with TTI are both linear/parallel and the interpretation is straightforward.
For the present TTI analysis, the data were centrally analyzed by an independent academic biostatistics center at the Montreal Health Innovations Coordinating Center. The analysis was conducted amongst patients who received at least one dose of the study medication (referred to as the safety population in the main protocol, FIG. 1). TTI was defined as the length of time in days between the index MI and the initiation of the study medication, and three specific cutoffs were analyzed ([…], days 4 to […]). Early initiation of therapy was defined as TTI≤3 days. Baseline characteristics were summarized using counts and percentages for categorical variables and mean±standard deviation (SD) for continuous variables. For each baseline characteristic, comparisons were made using ANOVA for continuous variables and Chi-Square test for categorical variables according to TTI strata. […]

[1] = TTI 0-3 days, listed as colchicine

Structure (SMILES): COc1cc2c(c(OC)c1OC)-c1ccc(OC)c(=O)cc1[C@@H](NC(C)=O)CC2 [Colchicine, colchicine]
- All Coronary Revascularizations, % of patients (TTI 0-3 days, N = 1193): 5.5%
- All Coronary Revascularizations, no. of patients (TTI 0-3 days, N = 1193): 33 no.
- All-cause death, % of patients (TTI 0-3 days, N = 1193): 1.0%
- All-cause death, no. of patients (TTI 0-3 days, N = 1193): 6 no.
- MI, % of patients (TTI 0-3 days, N = 1193): 2.8%
- MI, no. of patients (TTI 0-3 days, N = 1193): 17 no.
- Primary composite endpoint, % of patients (TTI 0-3 days, N = 1193): 4.3%
- Primary composite endpoint, no. of patients (TTI 0-3 days, N = 1193): 26 no.
- Resuscitated cardiac arrest, % of patients (TTI 0-3 days, N = 1193): 0.2%
- Resuscitated cardiac arrest, no. of patients (TTI 0-3 days, N = 1193): 1 no.
- Secondary Composite Endpoint, % of patients (TTI 0-3 days, N = 1193): 3.3%
- Stroke, % of patients (TTI 0-3 days, N = 1193): 0.2%
- Stroke, no. of patients (TTI 0-3 days, N = 1193): 1 no.
- Urgent hospitalization for angina requiring coronary revascularization, % of patients (TTI 0-3 days, N = 1193): 1%
- Urgent hospitalization for angina requiring coronary revascularization, no. of patients (TTI 0-3 days, N = 1193): 6 no.
- Secondary Composite Endpoint, no. of patients (TTI 0-3 days, N = 1193, CV death, resuscitated cardiac arrest, MI or stroke): 20 no.
- All Coronary Revascularizations, HR (95% CI) (TTI 0-3 days): 0.63 (0.40-0.97); p = 0.037
- All-cause death, HR (95% CI) (TTI 0-3 days): 1.03 (0.33-3.19); p = 0.962
- MI, HR (95% CI) (TTI 0-3 days): 0.58 (0.32-1.05); p = 0.071
- Primary composite endpoint, HR (95% CI) (TTI 0-3 days): 0.52 (0.32-0.84); p = 0.007
- Resuscitated cardiac arrest, HR (95% CI) (TTI 0-3 days): 0.33 (0.03-3.20); p = 0.340
- Secondary Composite Endpoint, HR (95% CI) (TTI 0-3 days): 0.55 (0.32-0.95); p = 0.031
- Stroke, HR (95% CI) (TTI 0-3 days): 0.21 (0.02-1.81); p = 0.156
- Urgent hospitalization for angina requiring coronary revascularization, HR (95% CI) (TTI 0-3 days): 0.35 (0.14-0.88); p = 0.026
- All Coronary Revascularizations, HR (95% CI) [1]: 0.63
- All-cause death, HR (95% CI) [1]: 1.03
- MI, HR (95% CI) [1]: 0.58
- Primary composite endpoint, HR (95% CI) [1]: 0.52
- Resuscitated cardiac arrest, HR (95% CI) [1]: 0.33
- Secondary Composite Endpoint, HR (95% CI) [1]: 0.55
- Stroke, HR (95% CI) [1]: 0.21
- Urgent hospitalization for angina requiring coronary revascularization, HR (95% CI) [1]: 0.35
- All Coronary Revascularizations, % of patients (TTI 4-7 days, N = 720): 6.9%
- All Coronary Revascularizations, no. of patients (TTI 4-7 days, N = 720): 25 no.
- All-cause death, % of patients (TTI 4-7 days, N = 720): 2.2%
- All-cause death, no. of patients (TTI 4-7 days, N = 720): 8 no.
- MI, % of patients (TTI 4-7 days, N = 720): 4.4%
- MI, no. of patients (TTI 4-7 days, N = 720): 16 no.
- Primary composite endpoint, % of patients (TTI 4-7 days, N = 720): 6.0%
- Primary composite endpoint, no. of patients (TTI 4-7 days, N = 720): 22 no.
- Resuscitated cardiac arrest, % of patients (TTI 4-7 days, N = 720): 0.5%
- Resuscitated cardiac arrest, no. of patients (TTI 4-7 days, N = 720): 2 no.
- Secondary Composite Endpoint, % of patients (TTI 4-7 days, N = 720): 4.9%
- Secondary Composite Endpoint, no. of patients (TTI 4-7 days, N = 720): 18 no.
- Stroke, % of patients (TTI 4-7 days, N = 720): 0.3%
- Stroke, no. of patients (TTI 4-7 days, N = 720): 1 no.
- Urgent hospitalization for angina requiring coronary revascularization, % of patients (TTI 4-7 days, N = 720): 1.1%
- Urgent hospitalization for angina requiring coronary revascularization, no. of patients (TTI 4-7 days, N = 720): 4 no.
- All Coronary Revascularizations, HR (95% CI) (TTI 4-7 days): 1.41 (0.76-2.61); p = 0.275
- All-cause death, HR (95% CI) (TTI 4-7 days): 1.03 (0.37-2.84); p = 0.957
- MI, HR (95% CI) (TTI 4-7 days): 1.67 (0.74-3.78); p = 0.218
- Primary composite endpoint, HR (95% CI) (TTI 4-7 days): 0.96 (0.53-1.75); p = 0.896
- Resuscitated cardiac arrest, HR (95% CI) (TTI 4-7 days): 1.90 (0.17-20.95); p = 0.600
